From the NIST ThermoML archive (doi:10.1021/je049691v)
Numbers after ± are expanded uncertainties.

Experiment: xn = mol fraction of the nth substance listed
Conditions: Liquid

CO [methanol] + O
Conditions | mass density [kg/m3]
283.15 K, x2 = 0.08 | 813.74 ± 0.29
283.15 K, x2 = 0.1581 | 827.14 ± 0.28
283.15 K, x2 = 0.2401 | 842.01 ± 0.27
283.15 K, x2 = 0.3206 | 857.15 ± 0.25
283.15 K, x2 = 0.3987 | 872.39 ± 0.24
283.15 K, x2 = 0.4799 | 888.59 ± 0.23
283.15 K, x2 = 0.56 | 905.16 ± 0.22
283.15 K, x2 = 0.6407 | 922.05 ± 0.2
283.15 K, x2 = 0.7201 | 938.63 ± 0.19
283.15 K, x2 = 0.8 | 954.82 ± 0.17
283.15 K, x2 = 0.8801 | 970.45 ± 0.17
283.15 K, x2 = 0.9603 | 988.05 ± 0.16
288.15 K, x2 = 0.08 | 809.22 ± 0.29
288.15 K, x2 = 0.1581 | 822.75 ± 0.28
288.15 K, x2 = 0.2401 | 837.75 ± 0.27
288.15 K, x2 = 0.3206 | 853.02 ± 0.26
288.15 K, x2 = 0.3987 | 868.39 ± 0.25
288.15 K, x2 = 0.4799 | 884.77 ± 0.23
288.15 K, x2 = 0.56 | 901.56 ± 0.22
288.15 K, x2 = 0.6407 | 918.74 ± 0.21
288.15 K, x2 = 0.7201 | 935.71 ± 0.19
288.15 K, x2 = 0.8 | 952.47 ± 0.18
288.15 K, x2 = 0.8801 | 968.91 ± 0.17
288.15 K, x2 = 0.9603 | 987.31 ± 0.17
293.15 K, x2 = 0.08 | 804.67 ± 0.3
293.15 K, x2 = 0.1581 | 818.33 ± 0.29
293.15 K, x2 = 0.2401 | 833.45 ± 0.27
293.15 K, x2 = 0.3206 | 848.84 ± 0.26
293.15 K, x2 = 0.3987 | 864.35 ± 0.25
293.15 K, x2 = 0.4799 | 880.88 ± 0.24
293.15 K, x2 = 0.56 | 897.88 ± 0.22
293.15 K, x2 = 0.6407 | 915.33 ± 0.21
293.15 K, x2 = 0.7201 | 932.67 ± 0.2
293.15 K, x2 = 0.8 | 949.98 ± 0.18
293.15 K, x2 = 0.8801 | 967.17 ± 0.18
293.15 K, x2 = 0.9603 | 986.29 ± 0.17
298.15 K, x2 = 0.08 | 800.1 ± 0.3
298.15 K, x2 = 0.1581 | 813.88 ± 0.29
298.15 K, x2 = 0.2401 | 829.11 ± 0.28
298.15 K, x2 = 0.3206 | 844.62 ± 0.27
298.15 K, x2 = 0.3987 | 860.25 ± 0.25
298.15 K, x2 = 0.4799 | 876.94 ± 0.24
298.15 K, x2 = 0.56 | 894.14 ± 0.23
298.15 K, x2 = 0.6407 | 911.85 ± 0.22
298.15 K, x2 = 0.7201 | 929.54 ± 0.2
298.15 K, x2 = 0.8 | 947.37 ± 0.19
298.15 K, x2 = 0.8801 | 965.23 ± 0.18
298.15 K, x2 = 0.9603 | 985.01 ± 0.18
303.15 K, x2 = 0.08 | 795.52 ± 0.31
303.15 K, x2 = 0.1581 | 809.4 ± 0.3
303.15 K, x2 = 0.2401 | 824.74 ± 0.28
303.15 K, x2 = 0.3206 | 840.35 ± 0.27
303.15 K, x2 = 0.3987 | 856.1 ± 0.26
303.15 K, x2 = 0.4799 | 872.93 ± 0.25
303.15 K, x2 = 0.56 | 890.32 ± 0.23
303.15 K, x2 = 0.6407 | 908.28 ± 0.22
303.15 K, x2 = 0.7201 | 926.31 ± 0.21
303.15 K, x2 = 0.8 | 944.61 ± 0.19
303.15 K, x2 = 0.8801 | 963.12 ± 0.19
303.15 K, x2 = 0.9603 | 983.49 ± 0.18
308.15 K, x2 = 0.08 | 790.9 ± 0.31
308.15 K, x2 = 0.1581 | 804.88 ± 0.3
308.15 K, x2 = 0.2401 | 820.31 ± 0.29
308.15 K, x2 = 0.3206 | 836.03 ± 0.27
308.15 K, x2 = 0.3987 | 851.89 ± 0.26
308.15 K, x2 = 0.4799 | 868.86 ± 0.25
308.15 K, x2 = 0.56 | 886.42 ± 0.24
308.15 K, x2 = 0.6407 | 904.62 ± 0.22
308.15 K, x2 = 0.7201 | 922.97 ± 0.21
308.15 K, x2 = 0.8 | 941.73 ± 0.2
308.15 K, x2 = 0.8801 | 960.83 ± 0.19
308.15 K, x2 = 0.9603 | 981.76 ± 0.18
313.15 K, x2 = 0.08 | 786.24 ± 0.32
313.15 K, x2 = 0.1581 | 800.3 ± 0.3
313.15 K, x2 = 0.2401 | 815.84 ± 0.29
313.15 K, x2 = 0.3206 | 831.64 ± 0.28
313.15 K, x2 = 0.3987 | 847.61 ± 0.27
313.15 K, x2 = 0.4799 | 864.71 ± 0.25
313.15 K, x2 = 0.56 | 882.44 ± 0.24
313.15 K, x2 = 0.6407 | 900.87 ± 0.23
313.15 K, x2 = 0.7201 | 919.53 ± 0.22
313.15 K, x2 = 0.8 | 938.72 ± 0.2
313.15 K, x2 = 0.8801 | 958.38 ± 0.2
313.15 K, x2 = 0.9603 | 979.82 ± 0.19
318.15 K, x2 = 0.08 | 781.54 ± 0.32
318.15 K, x2 = 0.1581 | 795.69 ± 0.31
318.15 K, x2 = 0.2401 | 811.3 ± 0.3
318.15 K, x2 = 0.3206 | 827.2 ± 0.28
318.15 K, x2 = 0.3987 | 843.26 ± 0.27
318.15 K, x2 = 0.4799 | 860.49 ± 0.26
318.15 K, x2 = 0.56 | 878.38 ± 0.25
318.15 K, x2 = 0.6407 | 897.03 ± 0.23
318.15 K, x2 = 0.7201 | 915.98 ± 0.22
318.15 K, x2 = 0.8 | 935.58 ± 0.21
318.15 K, x2 = 0.8801 | 955.76 ± 0.2
318.15 K, x2 = 0.9603 | 977.69 ± 0.19
323.15 K, x2 = 0.08 | 776.8 ± 0.33
323.15 K, x2 = 0.1581 | 791.04 ± 0.31
323.15 K, x2 = 0.2401 | 806.71 ± 0.3
323.15 K, x2 = 0.3206 | 822.69 ± 0.29
323.15 K, x2 = 0.3987 | 838.85 ± 0.27
323.15 K, x2 = 0.4799 | 856.2 ± 0.26
323.15 K, x2 = 0.56 | 874.24 ± 0.25
323.15 K, x2 = 0.6407 | 893.1 ± 0.24
323.15 K, x2 = 0.7201 | 912.32 ± 0.23
323.15 K, x2 = 0.8 | 932.31 ± 0.21
323.15 K, x2 = 0.8801 | 952.99 ± 0.21
323.15 K, x2 = 0.9603 | 975.39 ± 0.2
328.15 K, x2 = 0.08 | 772.01 ± 0.33
328.15 K, x2 = 0.1581 | 786.32 ± 0.32
328.15 K, x2 = 0.2401 | 802.07 ± 0.31
328.15 K, x2 = 0.3206 | 818.11 ± 0.29
328.15 K, x2 = 0.3987 | 834.36 ± 0.28
328.15 K, x2 = 0.4799 | 851.82 ± 0.27
328.15 K, x2 = 0.56 | 870.01 ± 0.25
328.15 K, x2 = 0.6407 | 889.07 ± 0.24
328.15 K, x2 = 0.7201 | 908.56 ± 0.23
328.15 K, x2 = 0.8 | 928.92 ± 0.22
328.15 K, x2 = 0.8801 | 950.06 ± 0.21
328.15 K, x2 = 0.9603 | 972.92 ± 0.2
333.15 K, x2 = 0.08 | 767.16 ± 0.34
333.15 K, x2 = 0.1581 | 781.54 ± 0.32
333.15 K, x2 = 0.2401 | 797.35 ± 0.31
333.15 K, x2 = 0.3206 | 813.44 ± 0.3
333.15 K, x2 = 0.3987 | 829.79 ± 0.28
333.15 K, x2 = 0.4799 | 847.36 ± 0.27
333.15 K, x2 = 0.56 | 865.69 ± 0.26
333.15 K, x2 = 0.6407 | 884.94 ± 0.25
333.15 K, x2 = 0.7201 | 904.69 ± 0.23
333.15 K, x2 = 0.8 | 925.41 ± 0.22
333.15 K, x2 = 0.8801 | 947 ± 0.22
333.15 K, x2 = 0.9603 | 970.28 ± 0.21
338.15 K, x2 = 0.08 | 762.24 ± 0.34
338.15 K, x2 = 0.1581 | 776.67 ± 0.33
338.15 K, x2 = 0.2401 | 792.56 ± 0.31
338.15 K, x2 = 0.3206 | 808.71 ± 0.3
338.15 K, x2 = 0.3987 | 825.13 ± 0.29
338.15 K, x2 = 0.4799 | 842.81 ± 0.28
338.15 K, x2 = 0.56 | 861.28 ± 0.26
338.15 K, x2 = 0.6407 | 880.72 ± 0.25
338.15 K, x2 = 0.7201 | 900.71 ± 0.24
338.15 K, x2 = 0.8 | 921.77 ± 0.23
338.15 K, x2 = 0.8801 | 943.79 ± 0.22
338.15 K, x2 = 0.9603 | 967.5 ± 0.21
343.15 K, x2 = 0.08 | 757.24 ± 0.35
343.15 K, x2 = 0.1581 | 771.74 ± 0.33
343.15 K, x2 = 0.2401 | 787.68 ± 0.32
343.15 K, x2 = 0.3206 | 803.91 ± 0.31
343.15 K, x2 = 0.3987 | 820.39 ± 0.29
343.15 K, x2 = 0.4799 | 838.17 ± 0.28
343.15 K, x2 = 0.56 | 856.77 ± 0.27
343.15 K, x2 = 0.6407 | 876.4 ± 0.25
343.15 K, x2 = 0.7201 | 896.64 ± 0.24
343.15 K, x2 = 0.8 | 918.02 ± 0.23
343.15 K, x2 = 0.8801 | 940.45 ± 0.22
343.15 K, x2 = 0.9603 | 964.57 ± 0.21
348.15 K, x2 = 0.08 | 752.17 ± 0.35
348.15 K, x2 = 0.1581 | 766.72 ± 0.34
348.15 K, x2 = 0.2401 | 782.71 ± 0.32
348.15 K, x2 = 0.3206 | 799 ± 0.31
348.15 K, x2 = 0.3987 | 815.56 ± 0.3
348.15 K, x2 = 0.4799 | 833.44 ± 0.28
348.15 K, x2 = 0.56 | 852.18 ± 0.27
348.15 K, x2 = 0.6407 | 871.97 ± 0.26
348.15 K, x2 = 0.7201 | 892.45 ± 0.25
348.15 K, x2 = 0.8 | 914.14 ± 0.24
348.15 K, x2 = 0.8801 | 936.97 ± 0.23
348.15 K, x2 = 0.9603 | 961.5 ± 0.22
353.15 K, x2 = 0.08 | 747.01 ± 0.36
353.15 K, x2 = 0.1581 | 761.6 ± 0.34
353.15 K, x2 = 0.2401 | 777.65 ± 0.33
353.15 K, x2 = 0.3206 | 794 ± 0.32
353.15 K, x2 = 0.3987 | 810.62 ± 0.3
353.15 K, x2 = 0.4799 | 828.62 ± 0.29
353.15 K, x2 = 0.56 | 847.48 ± 0.28
353.15 K, x2 = 0.6407 | 867.48 ± 0.26
353.15 K, x2 = 0.7201 | 888.15 ± 0.25
353.15 K, x2 = 0.8 | 910.15 ± 0.24
353.15 K, x2 = 0.8801 | 933.37 ± 0.23
353.15 K, x2 = 0.9603 | 958.3 ± 0.22
